Source: PubChem BioAssay (NCI)
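The compound was tested at five concentrations on cells cultured in 96-well plates, with a 48-hour exposure period. At the GI50, growth is halved. The concentration for full growth arrest is given as TGI.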

Key:
Experiment in all cases: DTP human tumour cell line panel, 48 h
786-0 renal = test system: 786-0 renal
A498 renal = test system: A498 renal
A549 NSCLC = test system: A549 NSCLC
ACHN renal = test system: ACHN renal
BT-549 breast = test system: BT-549 breast
CAKI-1 renal = test system: CAKI-1 renal
CCRF-CEM leukemia = test system: CCRF-CEM leukemia
COLO 205 colon = test system: COLO 205 colon
DU-145 prostate = test system: DU-145 prostate
EKVX NSCLC = test system: EKVX NSCLC
HCC-2998 colon = test system: HCC-2998 colon
HCT-116 colon = test system: HCT-116 colon
HCT-15 colon = test system: HCT-15 colon
HL-60(TB) leukemia = test system: HL-60(TB) leukemia
HOP-62 NSCLC = test system: HOP-62 NSCLC
HOP-92 NSCLC = test system: HOP-92 NSCLC
HS 578T breast = test system: HS 578T breast
HT29 colon = test system: HT29 colon
IGROV1 ovarian = test system: IGROV1 ovarian
K-562 leukemia = test system: K-562 leukemia
KM12 colon = test system: KM12 colon
LOX IMVI melanoma = test system: LOX IMVI melanoma
M14 melanoma = test system: M14 melanoma
MALME-3M melanoma = test system: MALME-3M melanoma
MCF7 breast = test system: MCF7 breast
MDA-MB-231 breast = test system: MDA-MB-231 breast
MDA-MB-435 = test system: MDA-MB-435
MDA-N = test system: MDA-N
MOLT-4 leukemia = test system: MOLT-4 leukemia
NCI-H226 lung = test system: NCI-H226 lung
NCI-H23 lung = test system: NCI-H23 lung
NCI-H460 lung = test system: NCI-H460 lung
NCI-H522 lung = test system: NCI-H522 lung
NCI/ADR-RES ovarian = test system: NCI/ADR-RES ovarian
OVCAR-3 ovarian = test system: OVCAR-3 ovarian
OVCAR-4 ovarian = test system: OVCAR-4 ovarian
OVCAR-5 ovarian = test system: OVCAR-5 ovarian
OVCAR-8 ovarian = test system: OVCAR-8 ovarian
PC-3 prostate = test system: PC-3 prostate
RPMI-8226 leukemia = test system: RPMI-8226 leukemia
RXF 393 renal = test system: RXF 393 renal
SF-268 CNS = test system: SF-268 CNS
SF-295 CNS = test system: SF-295 CNS
SF-539 CNS = test system: SF-539 CNS
SK-MEL-2 melanoma = test system: SK-MEL-2 melanoma
SK-MEL-28 melanoma = test system: SK-MEL-28 melanoma
SK-MEL-5 melanoma = test system: SK-MEL-5 melanoma
SK-OV-3 ovarian = test system: SK-OV-3 ovarian
SN12C renal = test system: SN12C renal
SNB-19 CNS = test system: SNB-19 CNS
SNB-75 CNS = test system: SNB-75 CNS
SR leukemia = test system: SR leukemia
SW-620 colon = test system: SW-620 colon
T-47D breast = test system: T-47D breast
TK-10 renal = test system: TK-10 renal
U251 CNS = test system: U251 CNS
UACC-257 melanoma = test system: UACC-257 melanoma
UACC-62 melanoma = test system: UACC-62 melanoma
UO-31 renal = test system: UO-31 renal

Cc1nc2ccccc2nc1NNc1ccccc1
TGI (786-0 renal): > 92.1 µM | TGI (A498 renal): > 94.5 µM | TGI (A549 NSCLC): > 95.9 µM | TGI (ACHN renal): 85.9 µM | TGI (BT-549 breast): 70 µM | TGI (CAKI-1 renal): > 100 µM | TGI (CCRF-CEM leukemia): 78.7 µM | TGI (COLO 205 colon): 1.03 µM | TGI (DU-145 prostate): > 86.1 µM | TGI (EKVX NSCLC): 68.2 µM | TGI (HCC-2998 colon): > 100 µM | TGI (HCT-116 colon): > 100 µM | TGI (HCT-15 colon): > 82.6 µM | TGI (HL-60(TB) leukemia): 58.8 µM | TGI (HOP-62 NSCLC): 86.6 µM | TGI (HOP-92 NSCLC): 57 µM | TGI (HS 578T breast): > 95.1 µM | TGI (HT29 colon): 18.7 µM | TGI (IGROV1 ovarian): 73.3 µM | TGI (K-562 leukemia): 74.5 µM | TGI (KM12 colon): 63.4 µM | TGI (LOX IMVI melanoma): 70.7 µM | TGI (M14 melanoma): 64.8 µM | TGI (MALME-3M melanoma): 69.5 µM | TGI (MCF7 breast): > 100 µM | TGI (MDA-MB-231 breast): 70.7 µM | TGI (MDA-MB-435): 41.7 µM | TGI (MDA-N): 48.9 µM | GI50 (MOLT-4 leukemia): 12.1 µM | TGI (MOLT-4 leukemia): 40.7 µM | TGI (NCI-H226 lung): 85.7 µM | TGI (NCI-H23 lung): 77.2 µM | TGI (NCI-H460 lung): > 88.7 µM | TGI (NCI-H522 lung): > 88.4 µM | TGI (NCI/ADR-RES ovarian): 75.8 µM | TGI (OVCAR-3 ovarian): 70.4 µM | TGI (OVCAR-4 ovarian): > 87.8 µM | TGI (OVCAR-5 ovarian): > 84.4 µM | TGI (OVCAR-8 ovarian): 77.8 µM | TGI (PC-3 prostate): > 84.4 µM | TGI (RPMI-8226 leukemia): 41 µM | GI50 (RXF 393 renal): 18.6 µM | TGI (RXF 393 renal): 78.7 µM | TGI (SF-268 CNS): > 100 µM | TGI (SF-295 CNS): > 93.6 µM | TGI (SF-539 CNS): > 96.2 µM | TGI (SK-MEL-2 melanoma): > 80.8 µM | TGI (SK-MEL-28 melanoma): > 96.7 µM | TGI (SK-MEL-5 melanoma): 31.5 µM | GI50 (SK-OV-3 ovarian): 24.8 µM | TGI (SK-OV-3 ovarian): > 100 µM | TGI (SN12C renal): 72.9 µM | TGI (SNB-19 CNS): > 100 µM | TGI (SNB-75 CNS): > 84.9 µM | TGI (SR leukemia): 74.5 µM | TGI (SW-620 colon): > 74.9 µM | TGI (T-47D breast): 46.9 µM | TGI (TK-10 renal): 98.7 µM | TGI (U251 CNS): > 93.5 µM | TGI (UACC-257 melanoma): 74.3 µM | TGI (UACC-62 melanoma): 43.4 µM | TGI (UO-31 renal): > 86.5 µM

C=C(Cl)C(Cl)(CBr)CCCC(C)(C)Cl (stereo unspecified)
TGI (786-0 renal): 18 µM | TGI (A498 renal): 33.9 µM | TGI (A549 NSCLC): 32.1 µM | TGI (ACHN renal): 19.6 µM | TGI (BT-549 breast): > 100 µM | TGI (CAKI-1 renal): 3.8 µM | TGI (CCRF-CEM leukemia): > 62.3 µM | TGI (COLO 205 colon): 20.8 µM | TGI (DU-145 prostate): 23.5 µM | TGI (EKVX NSCLC): 32.6 µM | TGI (HCC-2998 colon): 29.5 µM | TGI (HCT-116 colon): 30.8 µM | TGI (HCT-15 colon): 70.8 µM | TGI (HL-60(TB) leukemia): 3.22 µM | TGI (HOP-62 NSCLC): 9.16 µM | TGI (HOP-92 NSCLC): 6.33 µM | TGI (HS 578T breast): 12.7 µM | TGI (HT29 colon): 4.28 µM | TGI (IGROV1 ovarian): > 75.3 µM | TGI (K-562 leukemia): > 66.8 µM | TGI (KM12 colon): 3.6 µM | TGI (LOX IMVI melanoma): 40.9 µM | TGI (M14 melanoma): > 100 µM | TGI (MALME-3M melanoma): > 55.1 µM | TGI (MCF7 breast): 20.2 µM | TGI (MDA-MB-231 breast): > 59 µM | TGI (MDA-MB-435): > 73.3 µM | TGI (MDA-N): > 79.5 µM | TGI (MOLT-4 leukemia): > 100 µM | TGI (NCI-H226 lung): > 100 µM | TGI (NCI-H23 lung): > 100 µM | TGI (NCI-H460 lung): 17.7 µM | TGI (NCI-H522 lung): 28.1 µM | TGI (NCI/ADR-RES ovarian): > 74.1 µM | TGI (OVCAR-3 ovarian): 6.51 µM | TGI (OVCAR-4 ovarian): 17 µM | TGI (OVCAR-5 ovarian): 33 µM | TGI (OVCAR-8 ovarian): 52.6 µM | TGI (PC-3 prostate): 9.36 µM | TGI (RPMI-8226 leukemia): 4.03 µM | TGI (RXF 393 renal): > 100 µM | TGI (SF-268 CNS): 38.3 µM | TGI (SF-295 CNS): 19.8 µM | TGI (SF-539 CNS): 4.93 µM | TGI (SK-MEL-2 melanoma): 32.3 µM | TGI (SK-MEL-28 melanoma): 25.4 µM | TGI (SK-MEL-5 melanoma): > 90.8 µM | TGI (SK-OV-3 ovarian): > 100 µM | TGI (SN12C renal): > 100 µM | TGI (SNB-19 CNS): 30.1 µM | TGI (SNB-75 CNS): 37.6 µM | TGI (SR leukemia): > 100 µM | TGI (SW-620 colon): 41.4 µM | TGI (T-47D breast): 4.15 µM | TGI (TK-10 renal): 4.54 µM | TGI (U251 CNS): 4.16 µM | TGI (UACC-257 melanoma): 13.8 µM | TGI (UACC-62 melanoma): 42.3 µM | TGI (UO-31 renal): 29.3 µM
